From patent US11053239B2, “Compounds as BLC-2-selective apoptosis-inducing agents” (Fochon Pharmaceuticals, Ltd., priority 2017, dated 2021)
Read-outs that look alike come from different tables or passages of the source.

Legend:
RS4; 11 cells = assay: Cell proliferation assay (MTS), RS4; 11 cells; type: cell-based; details: RS4, 11 (ATCC CRL-1873) cell proliferation, 30000 cells/well, 72 h, MTS, mechanism-based readout of Bcl-2 inhibition, read-out: RS4, 11 IC50
In short: (§1)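 RS4;11 (30000 cells/well, 72 h) and DOHH2 (5000 cells/well, 120 h) cells in RPMI-1640/10% FBS, treated at 37 °C with compound at 1.5–10000 nM final. Viability by MTS (2 h, SDS stop), absorbance 490 nm minus 650 nm reference; IC50 fitted.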

DOHH2 cells = assay: Cell proliferation assay (MTS), DOHH2 cells; type: cell-based; details: DOHH2 (DSMZ ACC 47) cell proliferation, 5000 cells/well, 120 h, MTS, mechanism-based readout of Bcl-2 inhibition, read-out: DOHH2 IC50
In short: as §1

## C[C@@H](CCN1CCS(=O)(=NC(=O)C2CC2)CC1)Nc1ccc(S(=O)(=O)NC(=O)c2ccc(N3CCN(CC4=C(c5ccc(Cl)cc5)CC(C)(C)CC4)CC3)cc2Oc2cnc3[nH]ccc3c2)cc1[N+](=O)[O-] [Example 83, (S)-2-((1H-pyrrolo[2,3-b]pyridin-5-yl)oxy)-4-(4-((4′-chloro-5,5-dimethyl-3,4,5,6-tetrahydro-[1,1′-biphenyl]-2-yl)methyl)piperazin-1-yl)-N-((4-((4-(1-((cyclopropanecarbonyl)imino)-1-oxido-1λ^6-thiomorpholino)butan-2-yl)amino)-3-nitrophenyl)sulfonyl)benzamide]
RS4; 11 cells; Homo sapiens, RS4-11, 72 h
  IC50: 18 nM
DOHH2 cells; Homo sapiens, DOHH-2, 120 h
  IC50: 47 nM

## CCC(=O)N=S1(=O)CCN(C[C@H](C)Nc2ccc(S(=O)(=O)NC(=O)c3ccc(N4CCN(CC5=C(c6ccc(Cl)cc6)CC(C)(C)CC5)CC4)cc3Oc3cnc4[nH]ccc4c3)cc2[N+](=O)[O-])CC1 [Example 65, (S)-2-((1H-pyrrolo[2,3-b]pyridin-5-yl)oxy)-4-(4-((4′-chloro-5,5-dimethyl-3,4,5,6-tetrahydro-[1,1′-biphenyl]-2-yl)methyl)piperazin-1-yl)-N-((3-nitro-4-((l-(1-oxido-1-(propionylimino)-1λ^6-thiomorpholino)propan-2-yl)amino)phenyl)sulfonyl) benzamide]
RS4; 11 cells; Homo sapiens, RS4-11, 72 h
  IC50: 11 nM
DOHH2 cells; Homo sapiens, DOHH-2, 120 h
  IC50: 31 nM

## CC1(C)CCC(CN2CCN(c3ccc(C(=O)NS(=O)(=O)c4ccc(NCC5CCC(N=S(C)(C)=O)CO5)c([N+](=O)[O-])c4)c(Oc4cnc5[nH]ccc5c4)c3)CC2)=C(c2ccc(Cl)cc2)C1 (stereo not shown) [Example 57, 2-((1H-pyrrolo[2,3-b]pyridin-5-yl)oxy)-4-(4-((4′-chloro-5,5-dimethyl-3,4,5,6-tetrahydro-[1,1′-biphenyl]-2-yl)methyl)piperazin-1-yl)-N-((4-(((5-((dimethyl(oxo)-λ^6-sulfanylidene)amino)tetrahydro-2H-pyran-2-yl)methyl)amino)-3-nitrophenyl)sulfonyl)benzamide]
RS4; 11 cells; Homo sapiens, RS4-11, 72 h
  IC50: 20 nM
DOHH2 cells; Homo sapiens, DOHH-2, 120 h
  IC50: 30 nM

## CC1(C)CCC(CN2CCN(c3ccc(C(=O)NS(=O)(=O)c4cnc(NCC5CCC(N=S(C)(C)=O)CC5)c([N+](=O)[O-])c4)c(Oc4cnc5[nH]ccc5c4)c3)CC2)=C(c2ccc(Cl)cc2)C1 (stereo not shown) [Example 52, 2-((1H-pyrrolo[2,3-b]pyridin-5-yl)oxy)-4-(4-((4′-chloro-5,5-dimethyl-3,4,5,6-tetrahydro-[1,1′-biphenyl]-2-yl)methyl)piperazin-1-yl)-N-((6-(((4-((dimethyl(oxo)-λ^6-sulfanylidene)amino)cyclohexyl)methyl)amino)-5-nitropyridin-3-yl)sulfonyl) benzamide]
RS4; 11 cells; Homo sapiens, RS4-11, 72 h
  IC50: 2 nM
DOHH2 cells; Homo sapiens, DOHH-2, 120 h
  IC50: 29 nM

## COC(=O)N=S1(=O)CCN(CC[C@H](C)Nc2ccc(S(=O)(=O)NC(=O)c3ccc(N4CCN(CC5=C(c6ccc(Cl)cc6)CC(C)(C)CC5)CC4)cc3Oc3cnc4[nH]ccc4c3)cc2S(=O)(=O)C(F)(F)F)CC1 [Example 92, methyl (S)-(4-(3-((4-(N-(2-((1H-pyrrolo[2,3-b]pyridin-5-yl)oxy)-4-(4-((4′-chloro-5,5-dimethyl-3,4,5,6-tetrahydro-[1,1′-biphenyl]-2-yl)methyl)piperazin-1-yl)benzoyl)sulfamoyl)-2-((trifluoromethyl)sulfonyl)phenyl)amino)butyl)-1-oxido-1λ^6-thiomorpholin-1-ylidene) carbamate]
RS4; 11 cells; Homo sapiens, RS4-11, 72 h
  IC50: 109 nM
DOHH2 cells; Homo sapiens, DOHH-2, 120 h
  IC50: 53 nM

## COC(=O)N=S1(=O)CCN(C[C@H](C)Nc2ccc(S(=O)(=O)NC(=O)c3ccc(N4CCN(CC5=C(c6ccc(Cl)cc6)CC(C)(C)CC5)CC4)cc3Oc3cnc4[nH]ccc4c3)cc2[N+](=O)[O-])CC1 [Example 44, methyl (S)-(4-(2-((4-(N-(2-((1H-pyrrolo[2,3-b]pyridin-5-yl)oxy)-4-(4-((4′-chloro-5,5-dimethyl-3,4,5,6-tetrahydro-[1,1′-biphenyl]-2-yl)methyl)piperazin-1-yl)benzoyl)sulfamoyl)-2-nitrophenyl)amino)propyl)-1-oxido-1λ^6-thiomorpholin-1-ylidene) carbamate]
RS4; 11 cells; Homo sapiens, RS4-11, 72 h
  IC50: 21 nM
DOHH2 cells; Homo sapiens, DOHH-2, 120 h
  IC50: 20 nM

## CC(=O)N=S1(=O)CCN(CCNc2ccc(S(=O)(=O)NC(=O)c3ccc(N4CCN(CC5=C(c6ccc(Cl)cc6)CC(C)(C)CC5)CC4)cc3Oc3cnc4[nH]ccc4c3)cc2[N+](=O)[O-])CC1 [Example 37, 2-((1H-pyrrolo[2,3-b]pyridin-5-yl)oxy)-N-((4-((2-(1-(acetylimino)-1-oxido-1λ^6-thiomorpholino)ethyl)amino)-3-nitrophenyl)sulfonyl)-4-(4-((4′-chloro-5,5-dimethyl-3,4,5,6-tetrahydro-[1,1′-biphenyl]-2-yl)methyl)piperazin-1-yl) benzamide]
RS4; 11 cells; Homo sapiens, RS4-11, 72 h
  IC50: 12 nM
DOHH2 cells; Homo sapiens, DOHH-2, 120 h
  IC50: 228 nM

## C[C@@H](CN1CCS(=N)(=O)CC1)Nc1ccc(S(=O)(=O)NC(=O)c2ccc(N3CCN(CC4=C(c5ccc(Cl)cc5)CC(C)(C)CC4)CC3)cc2Oc2cnc3[nH]ccc3c2)cc1[N+](=O)[O-] [Example 45, (S)-2-((1H-pyrrolo[2,3-b]pyridin-5-yl)oxy)-4-(4-((4′-chloro-5,5-dimethyl-3,4,5,6-tetrahydro-[1,1′-biphenyl]-2-yl)methyl)piperazin-1-yl)-N-((4-((1-(1-imino-1-oxido-1λ^6-thiomorpholino)propan-2-yl)amino)-3-nitrophenyl)sulfonyl) benzamide]
RS4; 11 cells; Homo sapiens, RS4-11, 72 h
  IC50: 119 nM
DOHH2 cells; Homo sapiens, DOHH-2, 120 h
  IC50: 121 nM

## CC(C)OC(=O)N=S1(=O)CCN(CC[C@H](C)Nc2ccc(S(=O)(=O)NC(=O)c3ccc(N4CCN(CC5=C(c6ccc(Cl)cc6)CC(C)(C)CC5)CC4)cc3Oc3cnc4[nH]ccc4c3)cc2S(=O)(=O)C(F)(F)F)CC1 [Example 93, isopropyl (S)-(4-(3-((4-(N-(2-((1H-pyrrolo[2,3-b]pyridin-5-yl)oxy)-4-(4-((4′-chloro-5,5-dimethyl-3,4,5,6-tetrahydro-[1,1′-biphenyl]-2-yl)methyl)piperazin-1-yl)benzoyl)sulfamoyl)-2-((trifluoromethyl)sulfonyl)phenyl)amino)butyl)-1-oxido-1λ^6-thiomorpholin-1-ylidene) carbamate]
RS4; 11 cells; Homo sapiens, RS4-11, 72 h
  IC50: 184 nM
DOHH2 cells; Homo sapiens, DOHH-2, 120 h
  IC50: 537 nM

## C[C@@H](CN1CCS(=O)(=NC#N)CC1)Nc1ccc(S(=O)(=O)NC(=O)c2ccc(N3CCN(CC4=C(c5ccc(Cl)cc5)CC(C)(C)CC4)CC3)cc2Oc2cnc3[nH]ccc3c2)cc1[N+](=O)[O-] [Example 6, (S)-2-((1H-pyrrolo[2,3-b]pyridin-5-yl)oxy)-4-(4-((4′-chloro-5,5-dimethyl-3,4,5,6-tetrahydro-[1,1′-biphenyl]-2-yl)methyl)piperazin-1-yl)-N-((4-((1-(1-(cyanoimino)-1-oxido-1λ^6-thiomorpholino)propan-2-yl)amino)-3-nitrophenyl)sulfonyl)benzamide]
RS4; 11 cells; Homo sapiens, RS4-11, 72 h
  IC50: 36 nM
DOHH2 cells; Homo sapiens, DOHH-2, 120 h
  IC50: 150 nM

## CCOC(=O)N=S1(=O)CCN(C[C@H](C)Nc2ccc(S(=O)(=O)NC(=O)c3ccc(N4CCN(CC5=C(c6ccc(Cl)cc6)CC(C)(C)CC5)CC4)cc3Oc3cnc4[nH]ccc4c3)cc2S(=O)(=O)C(F)(F)F)CC1 [Example 76, ethyl (S)-(4-(2-((4-(N-(2-((1H-pyrrolo[2,3-b]pyridin-5-yl)oxy)-4-(4-((4′-chloro-5,5-dimethyl-3,4,5,6-tetrahydro-[1,1′-biphenyl]-2-yl)methyl)piperazin-1-yl)benzoyl)sulfamoyl)-2-((trifluoromethyl)sulfonyl)phenyl)amino)propyl)-1-oxido-1λ^6-thiomorpholin-1-ylidene) carbamate]
RS4; 11 cells; Homo sapiens, RS4-11, 72 h
  IC50: 208 nM
DOHH2 cells; Homo sapiens, DOHH-2, 120 h
  IC50: 247 nM

## (S)-2-((1H-pyrrolo[2,3-b] pyridin-5-yl)oxy)-4-(4-((4′- chloro-5,5-dimethyl- 3,4,5,6-tetrahydro-[1,1′- biphenyl]-2-yl)methyl) piperazin-1-yl)-N-((4-((1-(4- ((dimethyl(oxo)-λ^6- sulfanylidene)amino) piperidin-1-yl)propan-2-yl) amino)-3-nitrophenyl)sulfonyl) benzamide [Example 97]
RS4; 11 cells
  IC50: 1 nM
DOHH2 cells
  IC50: 325 nM

## COC(=O)N=S1(=O)CCC(CNc2ccc(S(=O)(=O)NC(=O)c3ccc(N4CCN(CC5=C(c6ccc(Cl)cc6)CC(C)(C)CC5)CC4)cc3Oc3cnc4[nH]ccc4c3)cc2[N+](=O)[O-])CC1 (stereo not shown) [Example 61, methyl(4-(((4-(N-(2-((1H-pyrrolo[2,3-b]pyridin-5-yl)oxy)-4-(4-((4′-chloro-5,5-dimethyl-3,4,5,6-tetrahydro-[1,1′-biphenyl]-2-yl)methyl)piperazin-1-yl)benzoyl)sulfamoyl)-2-nitrophenyl)amino)methyl)-1-oxidotetrahydro-2H-1λ^6-thiopyran-1-ylidene) carbamate]
RS4; 11 cells; Homo sapiens, RS4-11, 72 h
  IC50: 56 nM
DOHH2 cells; Homo sapiens, DOHH-2, 120 h
  IC50: 161 nM

## CC(C)OC(=O)N=S1(=O)CCN(CC[C@H](C)Nc2ccc(S(=O)(=O)NC(=O)c3ccc(N4CCN(CC5=C(c6ccc(Cl)cc6)CC(C)(C)CC5)CC4)cc3Oc3cnc4[nH]ccc4c3)cc2[N+](=O)[O-])CC1 [Example 86, isopropyl (S)-(4-(3-((4-(N-(2-((1H-pyrrolo[2,3-b]pyridin-5-yl)oxy)-4-(4-((4′-chloro-5,5-dimethyl-3,4,5,6-tetrahydro-[1,1′-biphenyl]-2-yl)methyl)piperazin-1-yl)benzoyl)sulfamoyl)-2-nitrophenyl)amino)butyl)-1-oxido-1λ^6-thiomorpholin-1-ylidene) carbamate]
RS4; 11 cells; Homo sapiens, RS4-11, 72 h
  IC50: 23 nM
DOHH2 cells; Homo sapiens, DOHH-2, 120 h
  IC50: 35 nM
